This passage reports T/C results from PubChem BioAssay AID288 (DTP/NCI, 2004).

“And” between values parts separate entries of the source, which are not always exact repeats. Identical values can stand only once. Results filed as inconclusive are left out.

This assay concerns BDF1 mice, M5076 sarcoma s.c., survival/tumor T/C. In words: NCI In Vivo Anticancer Drug Screen. Data for tumor model Sarcoma M5076 (subcutaneous) in B6D2F1 (BDF1) mice. On the procedure:
The antitumor activity of compounds was measured in mice bearing transplantable tumors. Survival or tumor size were measured and the results are expressed as the measurement made in the treated group (T) divided by the measurement made in the vehicle treated control group (C). The tumor model used in this assay is Sarcoma M5076 (subcutaneous) in B6D2F1 (BDF1) mice

Where [1] appears, read: endpoint: median survival time, dose: 50.0 mg/kg/injection, schedule: Q01DX009 (ip), vehicle: saline with Tween-80, higher = longer survival.
The mark [2] stands for this setting: endpoint: median survival time, dose: 100.0 mg/kg/injection, schedule: Q01DX009 (ip), vehicle: saline with Tween-80, higher = longer survival.
Setting [3] is: endpoint: median survival time, dose: 200.0 mg/kg/injection, schedule: Q01DX009 (ip), vehicle: saline with Tween-80, higher = longer survival.
Setting [4] is: endpoint: median tumor weight (est.), dose: 50.0 mg/kg/injection, schedule: Q01DX009 (ip), vehicle: saline with Tween-80, higher = larger tumour.
The mark [5] stands for this setting: endpoint: median tumor weight (est.), dose: 100.0 mg/kg/injection, schedule: Q01DX009 (ip), vehicle: saline with Tween-80, higher = larger tumour.
The mark [6] stands for this setting: endpoint: median tumor weight (est.), dose: 200.0 mg/kg/injection, schedule: Q01DX009 (ip), vehicle: saline with Tween-80, higher = larger tumour.

Regarding `CCN1Cc2c(/C=C/c3ccccc3)nc3ccc(OC)cc3c2N(c2cccc(Cl)c2)C1`, the T/C is 99 % of control under setting [1]; 99 % of control under setting [2]; 105 % of control under setting [3]; 60 % of control under setting [4]; 105 % of control under setting [5]; 73 % of control under setting [6].
For `CCCCOc1ccc(-n2c(=O)[nH]c3ccccc3c2=O)cc1`, the T/C was 101 % of control under setting [1]; 94 % of control under setting [2]; 101 % of control under setting [3]; 97 % of control under setting [4]; 100 % of control under setting [5]; 105 % of control under setting [6].
For `CO[C@H](C(=O)[C@@H](O)[C@@H](C)O)[C@@H]1Cc2cc3cc(OC4CC(OC5CC(O)C(O)C(C)O5)C(O)C(C)O4)c(C)c(O)c3c(O)c2C(=O)[C@H]1OC1CC(OC2CC(OC3CC(C)(O)C(O)C(C)O3)C(O)C(C)O2)C(O)C(C)O1` (stereo partly drawn), the T/C (endpoint: mean tumor weight, dose: 1.25 micrograms/kg/injection, schedule: Q02DX011 (ip), vehicle: water, higher = larger tumour) was 151 % of control; the T/C (endpoint: mean tumor weight, dose: 5.0 micrograms/kg/injection, schedule: Q02DX011 (ip), vehicle: water, higher = larger tumour) is 168 % of control; the T/C (endpoint: median tumor weight (est.), dose: 0.01 mg/kg/injection, schedule: Q02DX011 (ip), vehicle: water, higher = larger tumour) was 99 % of control; the T/C (endpoint: median tumor weight (est.), dose: 0.05 mg/kg/injection, schedule: Q02DX011 (ip), vehicle: water, higher = larger tumour) was 154 % of control.
Consider `CC1(C)OCC(CO)(Nc2nc(N3CC3)nc(N3CC3)n2)CO1`, for which the T/C runs as follows: (endpoint: median survival time, dose: 0.78 mg/kg/injection, schedule: Q02DX011 (ip), vehicle: saline, higher = longer survival) 98 % of control; (endpoint: median survival time, dose: 1.56 mg/kg/injection, schedule: Q02DX011 (ip), vehicle: saline, higher = longer survival) 110 % of control; (endpoint: median survival time, dose: 3.12 mg/kg/injection, schedule: Q02DX011 (ip), vehicle: saline, higher = longer survival) 164 % of control.
Regarding `CC[C@]1(O)C[C@H]2CN(CCc3c([nH]c4ccccc34)[C@@](C(=O)OC)(c3cc4c(cc3OC)N(C=O)[C@H]3[C@@](O)(C(=O)OC)[C@H](OC(C)=O)[C@]5(CC)C=CCN6CC[C@]43[C@@H]65)C2)C1`, the T/C is, setting by setting: (endpoint: median survival time, dose: 0.08 mg/kg/injection, schedule: Q02DX030 (ip), vehicle: saline, higher = longer survival) 110 % of control; (endpoint: median survival time, dose: 0.08 mg/kg/injection, schedule: Q04DX006 (ip), vehicle: saline, higher = longer survival) 112 % of control; (endpoint: median survival time, dose: 0.15 mg/kg/injection, schedule: Q04DX006 (ip), vehicle: saline, higher = longer survival) 97 % of control; (endpoint: median survival time, dose: 0.3 mg/kg/injection, schedule: Q04DX006 (ip), vehicle: saline, higher = longer survival) 103 % of control; (endpoint: median survival time, dose: 0.6 mg/kg/injection, schedule: Q04DX006 (ip), vehicle: saline, higher = longer survival) 109 % of control.
As to `Cc1cc(-c2ccc(NC(=O)Nc3cccc(F)c3)c(C)c2)ccc1NC(=O)Nc1cccc(F)c1`, the T/C is, setting by setting: under setting [1], 110 % of control; under setting [2], 102 % of control; under setting [3], 104 % of control; under setting [4], 107 % of control; under setting [5], 84 % of control; under setting [6], 70 % of control.
Turning to `COc1cc(COC(=O)Nc2ccccc2F)cc(OC)c1OC`, the T/C runs as follows: under setting [1], 100 % of control; under setting [2], 103 % of control; under setting [3], 94 % of control; under setting [4], 99 % of control; under setting [5], 111 % of control; under setting [6], 98 % of control.
On to `COC(=O)C(Cc1ccccc1)NS(=O)(=O)c1ccc(C)cc1` (stereo not drawn), for which the T/C runs as follows: under setting [1], 98 % of control; under setting [2], 106 % of control; under setting [3], 97 % of control; under setting [5], 118 % of control.
Turning to `C[C@]12C=CC(=O)C=C1CC[C@@H]1[C@@H]2C(=O)C[C@@]2(C)[C@H]1CC[C@]2(O)C(=O)CO`, the T/C runs as follows: (endpoint: mean tumor weight, dose: 12.5 mg/kg/injection, schedule: Q02DX011 (ip), vehicle: saline, higher = larger tumour) 82 % of control; (endpoint: mean tumor weight, dose: 25.0 mg/kg/injection, schedule: Q02DX011 (ip), vehicle: saline, higher = larger tumour) 52 % of control; (endpoint: mean tumor weight, dose: 50.0 mg/kg/injection, schedule: Q02DX011 (ip), vehicle: saline, higher = larger tumour) 59 % of control.
`CC/C(=C(/CC)c1ccc(O)cc1)c1ccc(O)cc1`: the T/C reads like this: (endpoint: mean tumor weight, dose: 7.5 mg/kg/injection, schedule: Q02DX011 (ip), vehicle: Klucel (hydroxypropylcellulose) (HPC), higher = larger tumour) 114 % of control; (endpoint: mean tumor weight, dose: 15.0 mg/kg/injection, schedule: Q02DX011 (ip), vehicle: Klucel (hydroxypropylcellulose) (HPC), higher = larger tumour) 62 % of control and 87 % of control; (endpoint: mean tumor weight, dose: 60.0 mg/kg/injection, schedule: Q02DX011 (ip), vehicle: Klucel (hydroxypropylcellulose) (HPC), higher = larger tumour) 55 % of control; (endpoint: median tumor weight (est.), dose: 15.0 mg/kg/injection, schedule: Q02DX011 (ip), vehicle: Klucel (hydroxypropylcellulose) (HPC), higher = larger tumour) 88 % of control; (endpoint: median tumor weight (est.), dose: 30.0 mg/kg/injection, schedule: Q02DX011 (ip), vehicle: Klucel (hydroxypropylcellulose) (HPC), higher = larger tumour) 66 % of control; (endpoint: median tumor weight (est.), dose: 60.0 mg/kg/injection, schedule: Q02DX011 (ip), vehicle: Klucel (hydroxypropylcellulose) (HPC), higher = larger tumour) 28 % of control.
Regarding `COc1cccc2c1C(=O)c1c(O)c3c(c(O)c1C2=O)C[C@@](O)(C(=O)CO)C[C@@H]3OC1CC(N)C(O)C(C)O1` (stereo partly drawn), the T/C is 81 % of control (endpoint: mean tumor weight, dose: 1.0 mg/kg/injection, schedule: Q02DX011 (ip), vehicle: saline, higher = larger tumour); 39 % of control (endpoint: mean tumor weight, dose: 2.0 mg/kg/injection, schedule: Q02DX011 (ip), vehicle: saline, higher = larger tumour); 97 % of control (endpoint: median survival time, dose: 0.25 mg/kg/injection, schedule: Q02DX009 (iv), vehicle: saline, higher = longer survival); 94 % of control (endpoint: median survival time, dose: 0.5 mg/kg/injection, schedule: Q02DX009 (iv), vehicle: saline, higher = longer survival); 114 % of control (endpoint: median survival time, dose: 0.5 mg/kg/injection, schedule: Q04DX009 (ip), vehicle: saline, higher = longer survival); 100 % of control (endpoint: median survival time, dose: 1.0 mg/kg/injection, schedule: Q02DX009 (iv), vehicle: saline, higher = longer survival). In addition, the T/C was 100 % of control (endpoint: median survival time, dose: 1.0 mg/kg/injection, schedule: Q02DX011 (ip), vehicle: water, higher = longer survival); 111 % of control (endpoint: median survival time, dose: 1.0 mg/kg/injection, schedule: Q04DX009 (ip), vehicle: saline, higher = longer survival); 100 % of control (endpoint: median survival time, dose: 1.3 mg/kg/injection, schedule: Q04DX004 (iv), vehicle: saline, higher = longer survival); 97 % of control (endpoint: median survival time, dose: 2.0 mg/kg/injection, schedule: Q02DX009 (iv), vehicle: saline, higher = longer survival); 94 % of control (endpoint: median survival time, dose: 2.0 mg/kg/injection, schedule: Q02DX011 (ip), vehicle: water, higher = longer survival); 111 % of control (endpoint: median survival time, dose: 2.0 mg/kg/injection, schedule: Q04DX009 (ip), vehicle: saline, higher = longer survival). Besides, the T/C (endpoint: median survival time, dose: 2.16 mg/kg/injection, schedule: Q04DX004 (ip), vehicle: saline, higher = longer survival) is 90 % of control; the T/C (endpoint: median survival time, dose: 2.16 mg/kg/injection, schedule: Q04DX004 (iv), vehicle: saline, higher = longer survival) was 112 % of control; the T/C (endpoint: median survival time, dose: 3.0 mg/kg/injection, schedule: Q02DX011 (ip), vehicle: water, higher = longer survival) was 96 % of control; the T/C (endpoint: median survival time, dose: 3.0 mg/kg/injection, schedule: Q04DX003 (iv), vehicle: saline, higher = longer survival) is 108 % of control; the T/C (endpoint: median survival time, dose: 3.6 mg/kg/injection, schedule: Q04DX004 (ip), vehicle: saline, higher = longer survival) is 103 % of control; the T/C (endpoint: median survival time, dose: 3.6 mg/kg/injection, schedule: Q04DX004 (iv), vehicle: saline, higher = longer survival) is 93 % of control. In addition, the T/C by setting is: (endpoint: median survival time, dose: 4.0 mg/kg/injection, schedule: Q02DX011 (ip), vehicle: water, higher = longer survival) 38 % of control; (endpoint: median survival time, dose: 4.0 mg/kg/injection, schedule: Q04DX009 (ip), vehicle: saline, higher = longer survival) 108 % of control; (endpoint: median survival time, dose: 4.5 mg/kg/injection, schedule: Q04DX003 (iv), vehicle: saline, higher = longer survival) 124 % of control; (endpoint: median tumor weight (est.), dose: 1.0 mg/kg/injection, schedule: Q02DX011 (ip), vehicle: saline, higher = larger tumour) 76 % of control; (endpoint: median tumor weight (est.), dose: 2.0 mg/kg/injection, schedule: Q02DX011 (ip), vehicle: saline, higher = larger tumour) 26 % of control.
With `COc1ccc(Cl)cc1NC(=O)NNC(=O)C(=O)Nc1ccc(F)cc1`, the T/C is, setting by setting: under setting [1], 106 % of control; under setting [2], 106 % of control; under setting [3], 113 % of control; under setting [4], 87 % of control; under setting [6], 115 % of control.
Turning to `Cc1ccc(/C=C2\SC(=S)N(C3CC3)C2=O)cc1`, the T/C reads like this: under setting [1], 103 % of control; under setting [2], 94 % of control; under setting [3], 98 % of control; under setting [4], 105 % of control; under setting [5], 80 % of control; under setting [6], 93 % of control.
For `C1CCC2OCCOCCOCCOCCOC2C1` (stereo not drawn), the T/C reads like this: (endpoint: median survival time, dose: 50.0 mg/kg/injection, schedule: Q01DX009 (ip), vehicle: saline, higher = longer survival) 111 % of control; (endpoint: median survival time, dose: 100.0 mg/kg/injection, schedule: Q01DX009 (ip), vehicle: saline, higher = longer survival) 113 % of control; (endpoint: median tumor weight (est.), dose: 50.0 mg/kg/injection, schedule: Q01DX009 (ip), vehicle: saline, higher = larger tumour) 66 % of control; (endpoint: median tumor weight (est.), dose: 100.0 mg/kg/injection, schedule: Q01DX009 (ip), vehicle: saline, higher = larger tumour) 75 % of control.
As to `CN(C)S(=O)(=O)c1ccc(CCCCc2ccc(N3C(N)=NC(N)=NC3(C)C)cc2Cl)c(Cl)c1`, the T/C (endpoint: median survival time, dose: 38.0 mg/kg/injection, schedule: Q01DX009 (ip), vehicle: saline with Tween-80, higher = longer survival) was 100 % of control.
